Data taken from publication PMC5908784, “Extracellular loops 2 and 3 of the calcitonin receptor selectively modify agonist binding and efficacy” (Biochemical Pharmacology, 2018).
Where a chain is given by its changes, count along the chain named. Where a SMILES comes first, the peptide text is derived from it. Bridges are numbered along the chain shown (N, C = ends).

How the values were obtained:
Assay in all cases: cAMP accumulation
Format in all cases: cell-based
Details in all cases: mean ± S.E.M.; for Emax: cAMP maximal response, SEM; for EC50: cAMP, CV1-FlpIn cells, 30 min, IBMX
hCTR W361A = target: T1, hCTR W361A (Homo sapiens, UniProt P30988, W361A)
T1 construct: expressed in transfected cells
T1 sequence (P30988 25-474 W361A): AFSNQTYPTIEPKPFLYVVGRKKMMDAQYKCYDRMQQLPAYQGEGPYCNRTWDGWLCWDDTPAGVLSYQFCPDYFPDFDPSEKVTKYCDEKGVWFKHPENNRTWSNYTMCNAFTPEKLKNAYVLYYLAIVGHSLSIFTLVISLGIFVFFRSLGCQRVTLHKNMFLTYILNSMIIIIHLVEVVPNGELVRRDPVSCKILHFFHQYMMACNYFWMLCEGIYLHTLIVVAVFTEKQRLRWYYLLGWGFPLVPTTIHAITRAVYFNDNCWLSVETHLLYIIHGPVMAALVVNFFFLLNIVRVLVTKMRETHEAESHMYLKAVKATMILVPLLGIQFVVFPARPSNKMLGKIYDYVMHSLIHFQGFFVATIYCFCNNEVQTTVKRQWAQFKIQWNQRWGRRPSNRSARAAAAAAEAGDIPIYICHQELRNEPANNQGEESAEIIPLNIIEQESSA
Protocol: (§1) Cells (2.5 × 10^4 cells/well) were seeded into 96-well plates and incubated overnight. Cells were stimulated with increasing concentrations of ligands for 30 min in the presence of IBMX. The liquid was discarded, changed to absolute ethanol and volatilized to dryness at room temperature. […] Data were normalized to the response of 100 μM forskolin.
(§2) Data were corrected for radioligand occupancy using the Cheng-Prusoff equation in Prism; as such data are reported as pKi. Emax and EC50 were estimated from concentration-response curves using with a 3-parameter logistic equation in Prism (v7). These values are a composite of functional affinity, efficacy and stimulus response coupling. […] Significance was accepted at P < 0.05.

hCTR Y284A = target: T2, hCTR Y284A (Homo sapiens, UniProt P30988, Y284A)
T2 construct: expressed in transfected cells
T2 sequence (P30988 25-474 Y284A): T1 sequence (P30988 25-474 W361A) with Y260A, A337W
Protocol: as §1, §2

hCTR K366A = target: T3, hCTR K366A (Homo sapiens, UniProt P30988, K366A)
T3 construct: c-Myc (N); expressed in transfected cells
T3 sequence (P30988 25-474 K366A): T1 sequence (P30988 25-474 W361A) with A337W, K342A
Protocol: as §1, §2

hCTR Y372A = target: T4, hCTR Y372A (Homo sapiens, UniProt P30988, Y372A)
T4 construct: c-Myc (N); expressed in transfected cells
T4 sequence (P30988 25-474 Y372A): T1 sequence (P30988 25-474 W361A) with A337W, Y348A
Protocol: as §1, §2

hCTR E294A = target: T5, hCTR E294A (Homo sapiens, UniProt P30988, E294A)
T5 construct: c-Myc (N); expressed in transfected cells
T5 sequence (P30988 25-474 E294A): T1 sequence (P30988 25-474 W361A) with E270A, A337W
Protocol: as §1, §2

EC50 (hCTR W361A)	EC50 (hCTR Y284A)	EC50 (hCTR K366A)	EC50 (hCTR Y372A)	EC50 (hCTR E294A)	Structure (SMILES)	Emax (hCTR W361A)	Emax (hCTR Y284A)	Emax (hCTR K366A)	Emax (hCTR Y372A)	Emax (hCTR E294A)
97.7 nM	19.1 nM	5.37 nM	123 nM	49 nM	CC(C)C[C@H](NC(=O)CNC(=O)[C@H](C)NC(=O)[C@H](CC(C)C)NC(=O)[C@H](CCCNC(=N)N)NC(=O)[C@H](Cc1cnc[nH]1)NC(=O)[C@@H](NC(=O)[C@@H](NC(=O)[C@@H]1CSSC[C@H](NC(=O)[C@H](C)N)C(=O)N[C@@H](CC(=O)O)C(=O)N[C@@H]([C@@H](C)O)C(=O)N[C@@H](C)C(=O)N[C@@H]([C@@H](C)O)C(=O)N1)C(C)C)[C@@H](C)O)C(=O)N[C@@H](CC(C)C)C(=O)N[C@@H](CO)C(=O)N[C@@H](CCCNC(=N)N)C(=O)N[C@@H](CO)C(=O)NCC(=O)NCC(=O)N[C@H](C(=O)N[C@H](C(=O)N[C@@H](CCCCN)C(=O)N[C@@H](CC(N)=O)C(=O)N[C@@H](CC(N)=O)C(=O)N[C@@H](Cc1ccccc1)C(=O)N[C@H](C(=O)N1CCC[C@H]1C(=O)N[C@H](C(=O)N[C@@H](CC(N)=O)C(=O)N[C@H](C(=O)NCC(=O)N[C@@H](CO)C(=O)N[C@@H](CCCCN)C(=O)N[C@@H](C)C(=O)N[C@@H](Cc1ccccc1)C(N)=O)C(C)C)[C@@H](C)O)C(C)C)C(C)C)C(C)C [hαCGRP]	102 ± 16%	139 ± 22%	73 ± 13%	36 ± 8%	137 ± 31%
0.148 nM	0.0631 nM	0.02 nM	1.15 nM	0.0398 nM	CSCC[C@H](NC(=O)CNC(=O)[C@H](CO)NC(=O)[C@H](Cc1ccccc1)NC(=O)[C@H](CCCNC(=N)N)NC(=O)[C@H](Cc1c[nH]cn1)NC(=O)[C@H](Cc1ccccc1)NC(=O)[C@H](CC(N)=O)NC(=O)[C@H](CC(N)=O)NC(=O)[C@H](CC(C)C)NC(=O)[C@H](CC(N)=O)NC(=O)[C@H](CCCNC(=N)N)NC(=O)[C@H](Cc1c[nH]c2ccccc12)NC(=O)[C@H](Cc1ccc(O)cc1)NC(=O)[C@H](C)NC(=O)[C@H](CO)NC(=O)[C@H](CC(C)C)NC(=O)[C@@H](NC(=O)[C@@H]1CSSC[C@H](N)C(=O)N[C@@H](CO)C(=O)N[C@@H](CC(N)=O)C(=O)N[C@@H](CC(C)C)C(=O)N[C@@H](CO)C(=O)N[C@@H]([C@@H](C)O)C(=O)N1)C(C)C)C(=O)NCC(=O)N[C@@H](Cc1ccccc1)C(=O)NCC(=O)N1CCC[C@H]1C(=O)N[C@@H](CCC(=O)O)C(=O)N[C@H](C(=O)N1CCC[C@H]1C(N)=O)[C@@H](C)O [pCT] (H-CSNLSTCVLSAYWRNLNNFHRFSGMGFGPETP-NH2; disulfide 1-7)	133 ± 9%	104 ± 9%	80 ± 8%	137 ± 13%	105 ± 6%
–	–	–	–	–	CC(C)C[C@H](NC(=O)[C@H](CCCCN)NC(=O)CNC(=O)[C@H](CC(C)C)NC(=O)[C@@H](NC(=O)[C@@H]1CSSC[C@H](N)C(=O)N[C@@H](CO)C(=O)N[C@@H](CC(N)=O)C(=O)N[C@@H](CC(C)C)C(=O)N[C@@H](CO)C(=O)N[C@@H]([C@@H](C)O)C(=O)N1)C(C)C)C(=O)N[C@@H](CO)C(=O)N[C@@H](CCC(N)=O)C(=O)N[C@@H](CCC(=O)O)C(=O)N[C@@H](CC(C)C)C(=O)N[C@@H](Cc1c[nH]cn1)C(=O)N[C@@H](CCCCN)C(=O)N[C@@H](CC(C)C)C(=O)N[C@@H](CCC(N)=O)C(=O)N[C@H](C(=O)N[C@@H](Cc1ccc(O)cc1)C(=O)N1CCC[C@H]1C(=O)N[C@@H](CCCNC(=N)N)C(=O)N[C@H](C(=O)N[C@@H](CC(N)=O)C(=O)N[C@H](C(=O)NCC(=O)N[C@@H](CO)C(=O)NCC(=O)N[C@H](C(=O)N1CCC[C@H]1C(N)=O)[C@@H](C)O)[C@@H](C)O)[C@@H](C)O)[C@@H](C)O [sCT]	126 ± 7%	111 ± 11%	81 ± 5%	113 ± 10%	98 ± 9%
–	–	–	–	–	CC[C@H](C)[C@H](NC(=O)[C@H](C)NC(=O)[C@@H](NC(=O)[C@H](CCC(N)=O)NC(=O)[C@@H]1CCCN1C(=O)[C@H](Cc1ccccc1)NC(=O)[C@@H](NC(=O)[C@H](Cc1c[nH]cn1)NC(=O)[C@H](Cc1ccccc1)NC(=O)[C@H](CCCCN)NC(=O)[C@H](CC(N)=O)NC(=O)[C@H](Cc1ccccc1)NC(=O)[C@H](CC(=O)O)NC(=O)[C@H](CCC(N)=O)NC(=O)[C@@H](NC(=O)[C@H](Cc1ccc(O)cc1)NC(=O)[C@@H](NC(=O)CNC(=O)[C@H](CC(C)C)NC(=O)[C@H](CCSC)NC(=O)[C@@H]1CSSC[C@H](N)C(=O)NCC(=O)N[C@@H](CC(N)=O)C(=O)N[C@@H](CC(C)C)C(=O)N[C@@H](CO)C(=O)N[C@@H]([C@@H](C)O)C(=O)N1)[C@@H](C)O)[C@@H](C)O)[C@@H](C)O)[C@@H](C)O)C(=O)NCC(=O)N[C@H](C(=O)NCC(=O)N[C@@H](C)C(=O)N1CCC[C@H]1C(N)=O)C(C)C [hCT]	132 ± 9%	103 ± 10%	74 ± 3%	149 ± 12%	105 ± 5%
–	–	–	–	–	CC(C)C[C@H](NC(=O)[C@H](CC(N)=O)NC(=O)[C@H](CC(N)=O)NC(=O)[C@H](CO)NC(=O)[C@H](CO)NC(=O)[C@H](CCCNC(=N)N)NC(=O)[C@@H](NC(=O)[C@H](CC(C)C)NC(=O)[C@H](Cc1ccccc1)NC(=O)[C@H](CC(N)=O)NC(=O)[C@H](C)NC(=O)[C@H](CC(C)C)NC(=O)[C@H](CCCNC(=N)N)NC(=O)[C@H](CCC(N)=O)NC(=O)[C@@H](NC(=O)[C@H](C)NC(=O)[C@@H]1CSSC[C@H](NC(=O)[C@@H](N)CCCCN)C(=O)N[C@@H](CC(N)=O)C(=O)N[C@@H]([C@@H](C)O)C(=O)N[C@@H](C)C(=O)N[C@@H]([C@@H](C)O)C(=O)N1)[C@@H](C)O)C(C)C)C(=O)NCC(=O)N1CCC[C@H]1C(=O)N[C@H](C(=O)N[C@@H](CC(C)C)C(=O)N1CCC[C@H]1C(=O)N1CCC[C@H]1C(=O)N[C@H](C(=O)N[C@@H](CC(N)=O)C(=O)N[C@H](C(=O)NCC(=O)N[C@@H](CO)C(=O)N[C@@H](CC(N)=O)C(=O)N[C@H](C(=O)N[C@@H](Cc1ccc(O)cc1)C(N)=O)[C@@H](C)O)C(C)C)[C@@H](C)O)C(C)C [rAmy]	102 ± 13%	101 ± 10%	71 ± 7%	170 ± 26%	90 ± 9%
